Test [1] relates to Aβ40 in conditioned medium of cells stably expressing Amyloid Precursor Protein (APP). Put plainly: In vitro BACE-1 cell-based assay (Aβ40 sandwich ELISA). As to conditions: read-out: IC50 IP (μM) BACE1 cell. In short, it runs like this: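 APP-expressing cells treated 24 h at 37 °C with compound in 10-point dose response (top 100 μM or 10 μM, 0.1% DMSO final). Secreted Aβ40 in conditioned medium quantified by sandwich ELISA (pAb40 capture, biotinylated 6E10 detection, time-resolved europium fluorescence); IC50 from percent inhibition versus concentration.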
A general note: An ELISA detects its analyte on a solid surface through an enzyme-linked reagent.

For a further test, the target named is Recombinant Cat D (Homo sapiens (Human), UniProt P07339). The experiment in a line: In vitro enzymatic Cathepsin D (Cat D) FRET assay. In kind it is biochemical. As to conditions: read-out: IC50 IP (μM) CatD. The procedure, abridged:
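CHO-expressed enzyme; buffer 0.05 M citrate pH 3.5, 5 mM CHAPS, 10% DMSO final. Start with FRET substrate 20 nM, 1 h incubation, Tris stop (pH to neutral), fluorescence ex 500 nm/em 580 nm.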

The target of another test is human recombinant BACE2 (Homo sapiens (Human), UniProt Q9Y5Z0). Put plainly: In vitro enzymatic BACE2 FRET assay. In kind it is biochemical. As to conditions: read-out: IC50 IP (μM) BACE2 enzyme. In short, it runs like this:
(§1)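 Ni-NTA-purified recombinant protease incubated with compound; reaction started with 50 nM FRET peptide substrate (fluorophore/quencher flanking the BACE cleavage site) and run 1 h. Stopped with Tris buffer raising pH to neutral; fluorescence read at ex 488/em 590 nm.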

The next test deals with Aβ 40 in rat brain. Put plainly: In vivo inhibition of beta-secretase: Aβ40 reduction in rat brain. As to conditions: 10 mpk, after 4 h. In short, it runs like this:
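Rats were dosed by oral gavage at up to 100 mg/kg in 2% HPMC, 1% Tween80, pH 2.2, with vehicle-only controls. Supernatant Aβ40 was measured by ECL sandwich ELISA with biotinylated-4G8 capture and C-terminal Fab40 detection.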

For the next test, the target named is human recombinant BACE1 (Homo sapiens (Human), UniProt P56817). Put plainly: In vitro enzymatic BACE1 FRET assay. In kind it is biochemical. Conditions: read-out: IC50 IP (μM) BACE1 enzyme. In short, it runs like this:
as §1

The next test deals with Aβ 40 in rat CSF. The experiment in a line: In vivo inhibition of beta-secretase: Aβ40 reduction in rat CSF. As to conditions: 10 mpk, after 4 h. In short, it runs like this: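 Male Sprague Dawley rats (200 g) dosed orally in 2% HPMC, 1% Tween80, pH 2.2, at 3, 10 or 30 mg/kg; CSF and brain taken 4 h later. Brain homogenate centrifuged at 355,000 g; Aβ40 measured by ECL sandwich ELISA (4G8 capture, Abeta40 C-terminal Fab detection), as % reduction versus vehicle controls.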

For orientation: IC50 means the concentration needed to halve the response being measured.

Read-outs that look alike come from different tables or passages of the source. Where only a bound is given, the exact number is not on record here.

Recombinant Cat D, sequence (P07339 65-412): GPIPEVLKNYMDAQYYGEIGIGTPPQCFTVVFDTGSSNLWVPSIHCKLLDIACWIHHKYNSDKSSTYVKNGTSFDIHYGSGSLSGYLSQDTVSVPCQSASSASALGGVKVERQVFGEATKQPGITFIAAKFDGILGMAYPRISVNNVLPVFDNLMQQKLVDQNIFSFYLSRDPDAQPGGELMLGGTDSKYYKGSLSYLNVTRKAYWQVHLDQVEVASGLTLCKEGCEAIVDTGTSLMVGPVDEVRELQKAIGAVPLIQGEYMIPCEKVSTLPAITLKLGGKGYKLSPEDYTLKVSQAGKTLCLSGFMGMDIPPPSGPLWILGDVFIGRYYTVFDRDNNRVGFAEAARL
human recombinant BACE1, sequence (P56817 46-501): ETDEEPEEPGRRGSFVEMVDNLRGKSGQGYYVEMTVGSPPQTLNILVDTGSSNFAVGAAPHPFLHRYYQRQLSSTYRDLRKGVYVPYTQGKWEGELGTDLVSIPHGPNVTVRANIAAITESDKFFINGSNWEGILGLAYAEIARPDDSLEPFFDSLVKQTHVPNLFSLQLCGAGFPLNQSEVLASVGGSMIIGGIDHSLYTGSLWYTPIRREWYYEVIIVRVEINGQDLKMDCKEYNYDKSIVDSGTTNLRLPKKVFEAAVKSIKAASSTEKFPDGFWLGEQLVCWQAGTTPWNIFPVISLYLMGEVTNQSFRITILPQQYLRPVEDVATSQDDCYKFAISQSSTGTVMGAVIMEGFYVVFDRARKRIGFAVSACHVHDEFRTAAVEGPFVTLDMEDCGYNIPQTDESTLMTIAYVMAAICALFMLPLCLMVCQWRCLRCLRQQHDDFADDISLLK
human recombinant BACE2, sequence (Q9Y5Z0 63-518): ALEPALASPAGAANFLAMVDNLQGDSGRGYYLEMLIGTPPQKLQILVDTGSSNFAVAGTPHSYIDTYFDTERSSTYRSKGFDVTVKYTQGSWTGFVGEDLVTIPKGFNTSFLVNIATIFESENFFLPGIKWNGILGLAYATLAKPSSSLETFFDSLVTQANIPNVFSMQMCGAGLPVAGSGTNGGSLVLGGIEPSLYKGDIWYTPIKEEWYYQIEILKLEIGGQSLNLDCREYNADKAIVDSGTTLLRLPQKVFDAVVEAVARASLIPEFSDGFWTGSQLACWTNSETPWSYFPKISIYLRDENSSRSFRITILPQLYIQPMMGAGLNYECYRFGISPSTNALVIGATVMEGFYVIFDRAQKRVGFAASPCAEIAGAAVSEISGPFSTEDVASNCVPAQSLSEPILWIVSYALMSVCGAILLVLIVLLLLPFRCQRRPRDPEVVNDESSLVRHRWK

As to `C[C@]1(c2cc(Nc3ncnc4cc(C#N)cnc34)cc(F)c2F)N=C(N)S[C@@]2(CF)C[C@H]21` [Example 801, 4-((3-((1S,5S,6S)-3-amino-1-(fluoromethyl)-5-methyl-2-thia-4-azabicyclo[4.1.0]hept-3-en-5-yl)-4,5-difluorophenyl)amino)pyrido[3,2-d]pyrimidine-7-carbonitrile], the concentration for half-maximal inhibition (IC50) in test [1] is 0.0137 µM; on Recombinant Cat D, 145 µM; on human recombinant BACE2, 0.0163 µM; on human recombinant BACE1, 0.00613 µM. The “% Aβ 40 reduction in rat brain at 10 mpk” value in the test with Aβ 40 in rat brain worked out at 68%. For the same molecule, the “% Aβ 40 reduction in rat CSF at 10 mpk” value with Aβ 40 in rat CSF is on record as 74%.

With `C[C@]1(c2cc(Nc3nccc4cc(C#N)cnc34)cc(F)c2F)N=C(N)S[C@H]2C[C@H]21` [Example 21, 8-((3-((1S,5S,6S)-3-amino-5-methyl-2-thia-4-azabicyclo[4.1.0]hept-3-en-5-yl)-4,5-difluorophenyl)amino)-1,7-naphthyridine-3-carbonitrile], the IC50 is 0.0164 µM in test [1] (BACE1 cell-based assay), greater than 133 µM on Recombinant Cat D (Cathepsin D FRET enzyme assay), 0.00534 µM on human recombinant BACE2 (BACE2 FRET enzyme assay) and 0.0145 µM on human recombinant BACE1 (BACE1 FRET enzyme assay). Moreover, the “% Aβ 40 reduction in rat brain at 10 mpk” value with Aβ 40 in rat brain was 40%. In addition, the “% Aβ 40 reduction in rat CSF at 10 mpk” value with Aβ 40 in rat CSF is on record as 61%.

With `NC1=N[C@](CF)(c2cc(NC(=O)c3ccc(Cl)cn3)ccc2F)[C@@H]2C[C@@H]2S1` [Example 1, N-(3-((1S,5S,6S)-3-amino-5-(fluoromethyl)-2-thia-4-azabicyclo[4.1.0]hept-3-en-5-yl)-4-fluorophenyl)-5-chloro-2-pyridinecarboxamide], the 50% inhibitory concentration (IC50) in test [1] (BACE1 cell-based assay) came out at 0.00871 µM; on Recombinant Cat D (Cathepsin D FRET enzyme assay), 74.5 µM; at human recombinant BACE2 (BACE2 FRET enzyme assay), 0.0022 µM; on human recombinant BACE1 (BACE1 FRET enzyme assay), 0.00551 µM. In the test with Aβ 40 in rat brain, the “% Aβ 40 reduction in rat brain at 10 mpk” value was 28%. In addition, the “% Aβ 40 reduction in rat CSF at 10 mpk” value in the test on Aβ 40 in rat CSF stood at 58%.

On to `C#C[C@H](C)Oc1cnc(C(=O)Nc2ccc(F)c([C@@]3(C)N=C(N)S[C@@]4(C(F)F)C[C@@H]34)c2)cn1` [Example 966, N-(3-((1S,5S,6S)-3-amino-1-(difluoromethyl)-5-methyl-2-thia-4-azabicyclo[4.1.0]hept-3-en-5-yl)-4-fluorophenyl)-5-(((1S)-1-methyl-2-propyn-1-yl)oxy)-2-pyrazinecarboxamide], for which the 50% inhibitory concentration (IC50) worked out at 0.00182 µM in test [1], 735 µM at Recombinant Cat D, 0.0419 µM on human recombinant BACE2 and 0.000385 µM on human recombinant BACE1. In the test with Aβ 40 in rat brain, the “% Aβ 40 reduction in rat brain at 10 mpk” value is 68%. Also, the “% Aβ 40 reduction in rat CSF at 10 mpk” value with Aβ 40 in rat CSF is given as 67%.

With `C#CCOc1cnc2c(Nc3cc(F)c(F)c([C@@]4(C)N=C(N)S[C@@]5(CO)C[C@H]54)c3)nccc2n1` [Example 82, ((1S,5S,6S)-3-amino-5-(2,3-difluoro-5-((2-(2-propyn-1-yloxy)pyrido[3,4-b]pyrazin-5-yl)amino)phenyl)-5-methyl-2-thia-4-azabicyclo[4.1.0]hept-3-en-1-yl)methanol], the IC50 in test [1] (BACE1 cell-based assay) is 0.00354 µM; at Recombinant Cat D (Cathepsin D FRET enzyme assay), greater than 133 µM; at human recombinant BACE2 (BACE2 FRET enzyme assay) it was 0.0099 µM; on human recombinant BACE1 (BACE1 FRET enzyme assay) it was 0.00043 µM. Further, in the test with Aβ 40 in rat brain, the “% Aβ 40 reduction in rat brain at 10 mpk” value amounted to 23%. Further, the “% Aβ 40 reduction in rat CSF at 10 mpk” value in the test on Aβ 40 in rat CSF came out at 48%.

With `N#Cc1ccc(C(=O)Nc2ccc(F)c([C@@]3(CF)N=C(N)S[C@H]4C[C@H]43)c2)nc1` [Example 2, N-(3-((1S,5S,6S)-3-amino-5-(fluoromethyl)-2-thia-4-azabicyclo[4.1.0]hept-3-en-5-yl)-4-fluorophenyl)-5-cyano-2-pyridinecarboxamide], the IC50 in test [1] (BACE1 cell-based assay) is 0.00437 µM; at Recombinant Cat D (Cathepsin D FRET enzyme assay), greater than 400 µM; on human recombinant BACE2 (BACE2 FRET enzyme assay), 0.0129 µM; at human recombinant BACE1 (BACE1 FRET enzyme assay), 0.00747 µM. Besides, the “% Aβ 40 reduction in rat brain at 10 mpk” value with Aβ 40 in rat brain was 67%. Further, the “% Aβ 40 reduction in rat CSF at 10 mpk” value in the test on Aβ 40 in rat CSF worked out at 72%.

As for `C#CCOc1cnc2c(Nc3cc(F)c(F)c([C@@]4(C)N=C(N)S[C@@]5(COC)C[C@H]54)c3)nccc2n1` [Example 627, N-(3-((1S,5S,6S)-3-amino-1-(methoxymethyl)-5-methyl-2-thia-4-azabicyclo[4.1.0]hept-3-en-5-yl)-4,5-difluorophenyl)-2-(2-propyn-1-yloxy)pyrido[3,4-b]pyrazin-5-amine], the 50% inhibitory concentration (IC50) stood at 0.00428 µM in test [1], 1390 µM at Recombinant Cat D, 0.0384 µM on human recombinant BACE2 and 0.00114 µM on human recombinant BACE1. For the same molecule, the “% Aβ 40 reduction in rat brain at 10 mpk” value in the test with Aβ 40 in rat brain was 50%. Further, the “% Aβ 40 reduction in rat CSF at 10 mpk” value in the test with Aβ 40 in rat CSF is listed as 59%.

Regarding `C#CCOc1cnc2c(Nc3cc(F)c(F)c([C@@]4(C)N=C(N)S[C@@]5(CF)C[C@H]54)c3)nccc2n1` [Example 806, N-(3-((1S,5S,6S)-3-amino-1-(fluoromethyl)-5-methyl-2-thia-4-azabicyclo[4.1.0]hept-3-en-5-yl)-4,5-difluorophenyl)-2-(2-propyn-1-yloxy)pyrido[3,4-b]pyrazin-5-amine], the IC50 in test [1] is 0.00772 µM; at Recombinant Cat D, 122 µM; on human recombinant BACE2, 0.0242 µM; on human recombinant BACE1 it was 0.000489 µM. The “% Aβ 40 reduction in rat brain at 10 mpk” value with Aβ 40 in rat brain was found to be 65%. Moreover, the “% Aβ 40 reduction in rat CSF at 10 mpk” value with Aβ 40 in rat CSF is recorded as 70%.

As for `COC[C@]12C[C@H]1[C@@](C)(c1cc(Nc3ncnc4cc(Cl)cnc34)cc(F)c1F)N=C(N)S2` [Example 35, N-(3-((1S,5S,6S)-3-amino-1-(methoxymethyl)-5-methyl-2-thia-4-azabicyclo[4.1.0]hept-3-en-5-yl)-4,5-difluorophenyl)-7-chloropyrido[3,2-d]pyrimidin-4-amine], the IC50 in test [1] (BACE1 cell-based assay) was found to be 0.00288 µM; at Recombinant Cat D (Cathepsin D FRET enzyme assay), 213 µM; on human recombinant BACE2 (BACE2 FRET enzyme assay) it was 0.00363 µM; on human recombinant BACE1 (BACE1 FRET enzyme assay), 0.00386 µM. In addition, the “% Aβ 40 reduction in rat brain at 10 mpk” value in the test on Aβ 40 in rat brain turned out to be 50%. For the same molecule, in the test with Aβ 40 in rat CSF, the “% Aβ 40 reduction in rat CSF at 10 mpk” value is 63%.

Take `C#CCOc1cnc2c(Nc3ccc(F)c([C@@]4(C)N=C(N)S[C@]5(CO)[C@H]4C5(F)F)c3)nccc2n1` [Example 707, ((1S,5S,6R)-3-amino-7,7-difluoro-5-(2-fluoro-5-((2-(2-propyn-1-yloxy)pyrido[3,4-b]pyrazin-5-yl)amino)phenyl)-5-methyl-2-thia-4-azabicyclo[4.1.0]hept-3-en-1-yl)methanol]: the IC50 turned out to be 0.00422 µM in test [1], 550 µM on Recombinant Cat D, 0.0185 µM on human recombinant BACE2 and 0.000636 µM at human recombinant BACE1. For the same molecule, in the test with Aβ 40 in rat brain, the “% Aβ 40 reduction in rat brain at 10 mpk” value came out at 25%. The “% Aβ 40 reduction in rat CSF at 10 mpk” value in the test with Aβ 40 in rat CSF came to 27%.

Turning to `NC1=N[C@](CF)(c2cc(Nc3nccc4cc(Cl)cnc34)ccc2F)[C@@H]2C[C@]2(CO)S1` [Example 45, ((1S,5S,6S)-3-amino-5-(5-((3-chloro-1,7-naphthyridin-8-yl)amino)-2-fluorophenyl)-5-(fluoromethyl)-2-thia-4-azabicyclo[4.1.0]hept-3-en-1-yl)methanol], the half-maximal inhibitory concentration (IC50) in test [1] (BACE1 cell-based assay) is 0.00427 µM; on Recombinant Cat D (Cathepsin D FRET enzyme assay) it was greater than 400 µM; at human recombinant BACE2 (BACE2 FRET enzyme assay) it was less than 0.00203 µM; on human recombinant BACE1 (BACE1 FRET enzyme assay), 0.00299 µM. Moreover, the “% Aβ 40 reduction in rat brain at 10 mpk” value with Aβ 40 in rat brain is recorded as 0%. The “% Aβ 40 reduction in rat CSF at 10 mpk” value with Aβ 40 in rat CSF was determined as 17%.

With `Cc1cc(C#N)cnc1C(=O)Nc1cc(F)c(F)c([C@@]2(CF)N=C(N)S[C@H]3C[C@H]32)c1` [Example 13, N-(3-((1S,5S,6S)-3-amino-5-(fluoromethyl)-2-thia-4-azabicyclo[4.1.0]hept-3-en-5-yl)-4,5-difluorophenyl)-5-cyano-3-methyl-2-pyridinecarboxamide], the IC50 in test [1] (BACE1 cell-based assay) was 0.00899 µM; at Recombinant Cat D (Cathepsin D FRET enzyme assay) it was greater than 400 µM; on human recombinant BACE2 (BACE2 FRET enzyme assay) it was 0.00618 µM; on human recombinant BACE1 (BACE1 FRET enzyme assay) it was 0.00548 µM. For the same molecule, the “% Aβ 40 reduction in rat brain at 10 mpk” value with Aβ 40 in rat brain was determined as 56%. The “% Aβ 40 reduction in rat CSF at 10 mpk” value in the test with Aβ 40 in rat CSF was found to be 70%.

The values are drawn from patent US20160046618A1, “Cyclopropyl Fused Thiazin-2-Amine Compounds as Beta-Secretase Inhibitors and Methods of Use” (AMGEN INC., priority 2014, published 2016).
